The target of the assay is T1, Gonadotropin-releasing hormone receptor (Homo sapiens, UniProt P30968).
T1 sequence (P30968 whole entry): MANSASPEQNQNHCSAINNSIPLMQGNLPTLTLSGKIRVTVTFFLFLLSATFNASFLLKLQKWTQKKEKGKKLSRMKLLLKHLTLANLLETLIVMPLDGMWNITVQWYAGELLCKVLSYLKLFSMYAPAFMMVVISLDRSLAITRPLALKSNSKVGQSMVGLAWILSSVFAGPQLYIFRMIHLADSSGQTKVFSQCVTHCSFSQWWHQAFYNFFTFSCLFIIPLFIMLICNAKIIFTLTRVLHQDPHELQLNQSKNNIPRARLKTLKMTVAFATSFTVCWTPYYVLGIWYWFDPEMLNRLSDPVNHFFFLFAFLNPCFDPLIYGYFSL
Briefly: Binding affinity towards human gonadotropin-releasing hormone receptor (GNRHR) using GnRH peptide as radioligand.
`COc1cccc(-c2cn(Cc3c(F)cccc3S(=O)(=O)N3CCOCC3)c(=O)n(C[C@H](N)c3ccccc3)c2=O)c1F` yielded an inhibition constant Ki of 1400 nM.

For `N[C@@H](Cn1c(=O)c(-c2cccc(O)c2F)cn(Cc2c(F)cccc2F)c1=O)c1ccccc1`, the affinity corresponds to a Ki of 660 nM.

Turning to `N[C@@H](Cn1c(=O)c(-c2cccc(OCC(F)(F)F)c2F)cn(Cc2c(F)cccc2C(F)(F)F)c1=O)c1ccccc1`, the inhibition constant Ki was determined as 8.2 nM.

With `COc1cccc(-c2cn(Cc3c(F)cccc3Cl)c(=O)n(C[C@H](N)c3ccccc3)c2=O)c1F`, the Ki is 1.4 nM.

Take `CS(=O)(=O)c1cccc(C(F)(F)F)c1Cn1cc(-c2ccccc2Cl)c(=O)n(C[C@H](N)c2ccccc2)c1=O`: affinity was put at a Ki of 3100 nM.

In turn, `COc1cccc(-c2cn(Cc3c(F)cccc3C(F)(F)F)c(=O)n(C[C@H](N)c3ccccc3)c2=O)c1Cl` came in with a Ki of 0.45 nM.

Consider `N[C@@H](Cn1c(=O)c(-c2cccc(O)c2F)cn(Cc2c(F)cccc2C(F)(F)F)c1=O)c1ccccc1`, for which the Ki is 18 nM.

The compound `N[C@@H](Cn1c(=O)c(-c2ccc(C(F)(F)F)cc2Cl)cn(Cc2c(F)cccc2C(F)(F)F)c1=O)c1ccccc1` displayed an inhibitory constant (Ki) of 200 nM.

`COc1cccc(-c2cn(Cc3c(F)cccc3SC)c(=O)n(C[C@H](N)c3ccccc3)c2=O)c1F`: the inhibition constant Ki is 19 nM.

In turn, `Cc1ccc(-c2cn(Cc3c(F)cccc3C(F)(F)F)c(=O)n(C[C@H](N)c3ccccc3)c2=O)c(Cl)c1` yielded a Ki of 2.6 nM.

As to `N[C@@H](Cn1c(=O)c(-c2ccccc2F)cn(Cc2c(F)cccc2C(F)(F)F)c1=O)c1ccccc1`, affinity was put at a Ki of 8 nM.

Regarding `CC(C)Oc1cccc(-c2cn(Cc3c(F)cccc3C(F)(F)F)c(=O)n(C[C@H](N)c3ccccc3)c2=O)c1F`, the Ki worked out at 6.3 nM.

Compound `COc1cccc(-c2cn(Cc3c(F)cccc3F)c(=O)n(C[C@H](N)c3ccccc3)c2=O)c1Cl` showed a Ki of 1 nM.

`COc1cccc(-c2cn(Cc3c(F)cccc3S(=O)(=O)N(C)C)c(=O)n(C[C@H](N)c3ccccc3)c2=O)c1F`: the Ki amounted to 120 nM.

For `COc1cccc(-c2cn(Cc3c(F)cccc3S(=O)(=O)CCO)c(=O)n(C[C@H](N)c3ccccc3)c2=O)c1F`, the Ki turned out to be 9.1 nM.

For the compound `N[C@@H](Cn1c(=O)c(-c2ccccc2C(F)(F)F)cn(Cc2c(F)cccc2C(F)(F)F)c1=O)c1ccccc1`, the Ki turned out to be 4 nM.

`COc1cccc(-c2cn(Cc3c(F)cccc3S(=O)(=O)C(C)C)c(=O)n(C[C@H](N)c3ccccc3)c2=O)c1F` came in with a Ki of 30 nM.

As for `CCOc1cccc(-c2cn(Cc3c(F)cccc3C(F)(F)F)c(=O)n(C[C@H](N)c3ccccc3)c2=O)c1F`, the affinity, expressed as Ki, was 1.8 nM.

Broadly, the Ki is the equilibrium dissociation constant of an inhibitor or competing ligand from its target. A low value points to higher affinity.

The values above are taken from ChEMBL document CHEMBL1145245, “Uracils as potent antagonists of the human gonadotropin-releasing hormone receptor without atropisomers” (Bioorg Med Chem Lett, 2005).
